The source of these data is PubChem BioAssay AID330 (DTP/NCI, 2004).

SMILES strings stand for the structures. Values joined by “and” are separate entries in the source; they are usually repeats but may differ in a detail not shown here. Equal entries are not always repeated. Toxic doses and inconclusive results are not listed.

This assay relates to P388 leukemia ip, CD2F1 mice, survival T/C. Description: NCI In Vivo Anticancer Drug Screen. Data for tumor model P388 Leukemia (intraperitoneal) in CD2F1 (CDF1) mice. To be noted: endpoint: median survival time, higher = longer survival. The procedure, abridged:
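Mice carrying the transplanted tumor received test compound or vehicle. Survival was recorded in each group, and the value is the treated-group measurement divided by that of the vehicle-treated control group.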

The mark [1] stands for this setting: dose: 6.25 mg/kg/injection, schedule: Q01DX009 (ip), vehicle: saline with Tween-80.

With `COc1ccc2c(c1OC(C)=O)-c1cc(OC(C)=O)cc3c1C(C2)N(C(=O)CBr)CC3` (centres undefined), the T/C under setting [1] is 104 % of control and the T/C (dose: 12.5 mg/kg/injection, schedule: Q01DX009 (ip), vehicle: saline with Tween-80) is 104 % of control.

With `O=C1Nc2ccc(Cl)cc2C1=O`, the T/C is 99 % of control and 98 % of control (dose: 50.0 mg/kg/injection, schedule: Q01DX009 (ip), vehicle: Klucel (hydroxypropylcellulose) (HPC)); 105 % of control (dose: 100.0 mg/kg/injection, schedule: Q01DX009 (ip), vehicle: Klucel (hydroxypropylcellulose) (HPC)); 118 % of control and 89 % of control (dose: 200.0 mg/kg/injection, schedule: Q01DX009 (ip), vehicle: Klucel (hydroxypropylcellulose) (HPC)).

As for `CCOC(=O)/C=C(/C)Sc1cc(O)c2ccccc2c1O`, the T/C under setting [1] was 100 % of control.

For `CCCCCC(=O)O[C@H]1CC[C@@H]2[C@H]1[C@@H]1CCC=C1C2(C)C`, the T/C is 97 % of control (dose: 100.0 mg/kg/injection, schedule: Q01DX001 (ip), vehicle: Klucel (hydroxypropylcellulose) (HPC)); 99 % of control (dose: 200.0 mg/kg/injection, schedule: Q01DX001 (ip), vehicle: Klucel (hydroxypropylcellulose) (HPC)); 100 % of control (dose: 400.0 mg/kg/injection, schedule: Q01DX001 (ip), vehicle: Klucel (hydroxypropylcellulose) (HPC)).
